Laboratory results as given in the supplement of paper PMC10307832.

Legend:
Assay in all cases: relative viability (nuclei count vs DMSO), 5 days (fraction); higher = more cells survive
[1] = tested on: NCI-H2170
Method in brief: (§1)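 Lung cancer cell lines in 1536-well plates got either a single drug or a fixed anchor-drug dose together with five library-drug doses (not always all listed) in √10 steps, by pin tool, on the day after seeding. Nuclei were counted after 5 days, and relative viability is the treated-to-vehicle ratio of nuclei counts. Values are medians of duplicate plates.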

[2] = tested on: LU99A
Method in brief: as §1

[3] = tested on: NCI-H2405
Method in brief: as §1

[4] = tested on: HCC-78
Method in brief: as §1

[5] = tested on: NCI-H1755
Method in brief: as §1

[6] = tested on: NCI-H1395
Method in brief: as §1

[7] = tested on: NCI-H460
Method in brief: as §1

[8] = tested on: CAL-12T
Method in brief: as §1

[9] = tested on: UMC-11
Method in brief: as §1

[10] = tested on: HCC-366
Method in brief: as §1

[11] = tested on: NCI-H1793
Method in brief: as §1

COc1cc2nccc(Oc3ccc(NC(=O)Nc4cc(C)on4)c(Cl)c3)c2cc1OC [Tivozanib] + CC(=O)Nc1cccc(-n2c(=O)n(C3CC3)c(=O)c3c(Nc4ccc(I)cc4F)n(C)c(=O)c(C)c32)c1 [Trametinib] (partner 0.02 µM)
relative viability ([1]; first compound 0.05 µM): 0.893
relative viability ([1]; first compound 0.5 µM): 0.983
relative viability ([2]; first compound 0.005 µM): 0.626
relative viability ([2]; first compound 0.01581 µM): 0.496
relative viability ([2]; first compound 0.05 µM): 0.61
relative viability ([2]; first compound 0.1581 µM): 0.396
relative viability ([2]; first compound 0.5 µM): 0.563
relative viability ([3]; first compound 0.005 µM): 0.543
relative viability ([3]; first compound 0.01581 µM): 0.664
relative viability ([3]; first compound 0.05 µM): 0.607
relative viability ([3]; first compound 0.1581 µM): 0.499
relative viability ([3]; first compound 0.5 µM): 0.554
relative viability ([4]; first compound 0.005 µM): 0.788
relative viability ([4]; first compound 0.01581 µM): 0.828
relative viability ([4]; first compound 0.05 µM): 0.711
relative viability ([4]; first compound 0.1581 µM): 0.859
relative viability ([4]; first compound 0.5 µM): 0.537
relative viability ([5]; first compound 0.005 µM): 0.664
relative viability ([5]; first compound 0.01581 µM): 0.75
relative viability ([5]; first compound 0.05 µM): 0.804
relative viability ([5]; first compound 0.1581 µM): 0.739
relative viability ([5]; first compound 0.5 µM): 0.77
relative viability ([6]; first compound 0.005 µM): 0.992
relative viability ([6]; first compound 0.01581 µM): 0.961
relative viability ([6]; first compound 0.05 µM): 1.17
relative viability ([6]; first compound 0.1581 µM): 0.952
relative viability ([6]; first compound 0.5 µM): 0.938
relative viability ([7]; first compound 0.005 µM): 0.13
relative viability ([7]; first compound 0.01581 µM): 0.192
relative viability ([7]; first compound 0.05 µM): 0.254
relative viability ([7]; first compound 0.1581 µM): 0.13
relative viability ([7]; first compound 0.5 µM): 0.236
relative viability ([8]; first compound 0.005 µM): 0.297
relative viability ([8]; first compound 0.01581 µM): 0.356
relative viability ([8]; first compound 0.05 µM): 0.414
relative viability ([8]; first compound 0.1581 µM): 0.235
relative viability ([8]; first compound 0.5 µM): 0.408
relative viability ([9]; first compound 0.005 µM): 0.66
relative viability ([9]; first compound 0.01581 µM): 0.67
relative viability ([9]; first compound 0.05 µM): 0.754
relative viability ([9]; first compound 0.1581 µM): 0.533
relative viability ([9]; first compound 0.5 µM): 0.529
relative viability ([10]; first compound 0.005 µM): 0.363
relative viability ([10]; first compound 0.01581 µM): 0.349
relative viability ([10]; first compound 0.05 µM): 0.341
relative viability ([10]; first compound 0.1581 µM): 0.323
relative viability ([10]; first compound 0.5 µM): 0.426
relative viability ([11]; first compound 0.005 µM): 0.305
relative viability ([11]; first compound 0.01581 µM): 0.457
relative viability ([11]; first compound 0.05 µM): 0.471
relative viability ([11]; first compound 0.5 µM): 0.445
